The assay has as its target T1, PDE-4A (Homo sapiens, UniProt P27815).
T1 construct: PDE-4A catalytic domain comprising amino acids 342-704; made in house; host or cells: Escherichia coli
Kind of assay: PDE-4A inhibitory assay (SPA). The assay is classed as biochemical. The text has this:
Human recombinant PDE-4A catalytic domain comprising amino acids 342-704 was cloned into Escherichia coli and expressed, as described by W. Richter et al., Protein Expression and Purification (2000) 19: 375-383. The other posphodiesterases were either obtained from cell lines of human origin (TPH1 monocytes line for PDE-1, MCF7 for PDE-5) or expressed recombinantly in sf9 insect cells (for PDE-3A, PDE-3B, PDE-7A and PDE-4D) in accordance with an adapted method by Luckow, V. A. et al., in: Recombinant DNA Technology & Applications., (1991) eds. Prokop, Bajpai, R. K. & Ho, C. S., pp 97-152.
The phosphodiesterase activity was determined by the SPA assay as described by the manufacturer Amersham Biosciences and by Horton J. K and Baxendale P. M., Methods Mol. Biol. (1995) 41: 91-105.
The reaction mixtures contained 100 mM Tris-HCl (pH 7.5), 5 mM MgCl2, 3.8 mM 2-mercaptoethanol, and 1 μM cAMP or cGMP as a substrate, the inhibitors at different concentrations and also further components required for the detection of the individual isoenzymes (see below). The reaction was started by adding the enzyme. The operating volume is 100 μl in the wells of a white 96-Well microtiter plate. The test substances were produced as stock solutions in DMSO. The DMSO concentration in the reaction batch was 1% v/v. The PDE activity is not impaired with this DMSO concentration. Having started the reaction by the addition of enzyme, the samples were incubated at 22° C. for 20 min. The reaction was stopped by the addition of SPA bead suspension which contains the zinc sulfate concentration provided according to the manufacturer. Then, the beads are allowed to sediment for 30 min and the plates are analyzed on the luminescence microtiter plate reader Fluostar Optima (BMG Labtechologies).
[^3H]-cAMP was used as a substrate for determining the activity of PDE-2, -3, -4 and -7 and [^3H]-cGMP for determining the activity of PDE-5. The non-specific enzyme activities were determined in the presence of 100 μM rolipram (for PDE-4) and in the presence of 100 μM IBMX (for PDE-3 and -5) and subtracted from the test values. The incubation samples of the PDE-3 assay contain 10 μM rolipram to inhibit possible contaminations by PDE-4. The PDE-2 activity is tested using a SPA assay by Amersham Biosciences in the presence of the PDE-2 activator 5 μM cGMP. […] The selectivity as to PDEs 2, 3 and 5 has a factor of 100 to 10 000.

“And” between values parts separate entries of the source, which are not always exact repeats. Equal values may be shown once. Where a name gives a salt, the structure may show the parent alone.

T1 sequence (P27815 342-704): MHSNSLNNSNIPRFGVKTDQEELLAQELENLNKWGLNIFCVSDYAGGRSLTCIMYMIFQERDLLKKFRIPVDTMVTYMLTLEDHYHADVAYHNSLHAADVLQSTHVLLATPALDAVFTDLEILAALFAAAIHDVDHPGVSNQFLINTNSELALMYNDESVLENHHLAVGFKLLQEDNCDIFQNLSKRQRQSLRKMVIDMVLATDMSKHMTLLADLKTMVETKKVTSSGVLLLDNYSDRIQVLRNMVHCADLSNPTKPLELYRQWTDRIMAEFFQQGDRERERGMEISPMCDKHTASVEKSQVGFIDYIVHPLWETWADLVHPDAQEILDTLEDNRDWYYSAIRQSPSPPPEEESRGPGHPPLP

By IC50 is commonly meant the point on the concentration scale where inhibition reaches its midpoint. `Cc1cc(-c2ccccc2)nc2sc3c(N4CCNCC4)nc(OCC(F)F)nc3c12` [2-(2,2-Difluoro-ethoxy)-9-methyl-7-phenyl-4-(piperazin-1-yl)-pyrido[3′,2′:4,5]thieno[3,2-d]pyrimidine] returned an IC50 of 2 to 50 nM.
`CCc1cc(-c2ccc(C)cc2)nc2sc3c(N4CCNCC4)nc(OCCO)nc3c12` [2-(2-Hydroxy-ethoxy)-9-ethyl-7-(4-methyl-phenyl)-4-(piperazin-1-yl)-pyrido[3′,2′:4,5]thieno[3,2-d]pyrimidine] gave an IC50 of 2 to 50 nM.
The value for `CCOc1nc(N2CCNCC2)c2sc3nc(C(C)C)cc(C(C)C)c3c2n1` [2-Ethoxy-7,9-di-iso-propyl-4-(piperazin-1-yl)-pyrido[3′,2′:4,5]thieno[3,2-d]pyrimidine] was 2 to 50 nM.
Take `CCOc1ccc(-c2cc(CC)c3c(n2)sc2c(N4CCNCC4)nc(OCC)nc23)cc1` [2-Ethoxy-7-(4-ethoxy-phenyl)-9-ethyl-4-(piperazin-1-yl)-pyrido[3′,2′:4,5]thieno[3,2-d]pyrimidine]: the IC50 is < 2 nM.
`CCOc1nc(N2CCNCC2)c2sc3nc(C)cc(-c4ccccc4)c3c2n1` [2-Ethoxy-7-methyl-9-phenyl-4-(piperazin-1-yl)-pyrido[3′,2′:4,5]thieno[3,2-d]pyrimidine] gave a half-maximal inhibitory concentration (IC50) of 2 to 50 nM.
In the case of `CCOc1nc(N2CCNCC2)c2sc3nc(-c4ccc5c(c4)OCCO5)cc(CC)c3c2n1` [2-Ethoxy-9-ethyl-7-(2,3-dihydrobenzo[b][1,4]dioxin-6-yl)-4-(piperazin-1-yl)-pyrido[3′,2′:4,5]thieno[3,2-d]pyrimidine], the IC50 was < 2 nM.
Under `CCOc1nc(N2CCNCC2)c2sc3nc(-c4ccc(C)cc4)cc(CC)c3c2n1` [2-Ethoxy-9-ethyl-7-(4-methyl-phenyl)-4-(piperazin-1-yl)-pyrido[3′,2′:4,5]thieno[3,2-d]pyrimidine] stands < 2 nM and 2 to 50 nM.
`CCOc1nc(N2CCNCC2)c2sc3nc(-c4ccc5c(c4)OCO5)cc(C)c3c2n1` [2-Ethoxy-9-methyl-7-(3,4-methylenedioxyphenyl)-4-piperazin-1-yl-pyrido[3′,2′:4,5]thieno-[3,2-d]pyrimidine] displayed an IC50 of 2 to 50 nM.
Compound `CCOc1nc(N2CCNCC2)c2sc3nc(-c4ccc(C)cc4)cc(C)c3c2n1` [2-Ethoxy-9-methyl-7-(4-methyl-phenyl)-4-(piperazin-1-yl)-pyrido[3′,2′:4,5]thieno[3,2-d]pyrimidine] returned an IC50 of 2 to 50 nM.
`CCOc1nc(N2CCNCC2)c2sc3nc(N4CCOCC4)cc(C)c3c2n1` [2-Ethoxy-9-methyl-7-morpholino-4-(piperazin-1-yl)-pyrido[3′,2′:4,5]thieno[3,2-d]pyrimidine] displayed an IC50 of 2 to 50 nM.
For `CCOc1nc(N2CCNCC2)c2sc3nc(-c4cccs4)cc(C)c3c2n1` [2-Ethoxy-9-methyl-7-thien-2-yl-9-methyl-4-(piperazin-1-yl)-pyrido[3′,2′:4,5]thieno[3,2-d]pyrimidine], the IC50 was in the range of 2 to 50 nM.
For the compound `CCOc1nc(N2CCNCC2)nc2c1sc1nc(-c3ccc(-c4ccc(C(=O)OC)cc4N)cc3)nc(C)c12` [2′-Amino-4-(4-ethoxy-9-methyl-2-piperazin-1-yl-thieno[2,3-d:4,5-d′]dipyrimidin-7-yl)-biphenyl-4′-carboxylic acid methyl ester], the IC50 is < 2 nM.
`CCOc1nc(N2CCNCC2)nc2c1sc1nc(-c3ccc(-c4ccc(C(=O)O)cc4N)cc3)nc(C)c12` [2′-Amino-4-(4-ethoxy-9-methyl-2-piperazin-1-yl-thieno[2,3-d:4,5-d′]dipyrimidin-7-yl)-biphenyl-4′-carboxylic acid sodium salt] came in with an IC50 of 2 to 50 nM.
For `Cc1cc(-c2ccccc2)nc2sc3c(OCC(F)F)nc(N4CCNCC4)nc3c12` [4-(2,2-Difluoro-ethoxy)-9-methyl-7-phenyl-2-(piperazin-1-yl)-pyrido[3′,2′:4,5]thieno[3,2-d]pyrimidine], the IC50 was 2 to 50 nM.
Compound `Cc1cc(-c2ccccc2)nc2sc3c(OCCO)nc(N4CCNCC4)nc3c12` [4-(2-Hydroxy-ethoxy)-9-methyl-7-phenyl-2-(piperazin-1-yl)-pyrido[3′,2′:4,5]thieno[3,2-d]pyrimidine] came in with an IC50 of 2 to 50 nM.
The value for `CCOc1nc(N2CCNCC2)nc2c1sc1nc(-c3ccc(-c4cccc(C(=O)OC)c4)cc3)nc(C)c12` [4-(4-Ethoxy-9-methyl-2-piperazin-1-yl-thieno[2,3-d:4,5-d′]dipyrimidin-7-yl)-biphenyl-3′-carboxylic acid methyl ester] was 2 to 50 nM; that for `CCOc1nc(N2CCNCC2)nc2c1sc1nc(-c3ccc(-c4cccc(C(=O)O)c4)cc3)nc(C)c12` [4-(4-Ethoxy-9-methyl-2-piperazin-1-yl-thieno[2,3-d:4,5-d′]dipyrimidin-7-yl)-biphenyl-3′-carboxylic acid potassium salt] was 2 to 50 nM; that for `CCOC(=O)c1ccc(-c2ccc(-c3nc(C)c4c(n3)sc3c(OCC)nc(N5CCNCC5)nc34)cc2)cc1` [4-(4-Ethoxy-9-methyl-2-piperazin-1-yl-thieno[2,3-d:4,5-d′]dipyrimidin-7-yl)-biphenyl-4′-carboxylic acid ethyl ester] was 2 to 50 nM.
Take `CCOc1nc(N2CCNCC2)nc2c1sc1nc(-c3ccc(-c4ccc(C(=O)O)cc4)cc3)nc(C)c12` [4-(4-Ethoxy-9-methyl-2-piperazin-1-yl-thieno[2,3-d:4,5-d′]dipyrimidin-7-yl)-biphenyl-4′-carboxylic acid sodium salt]: the IC50 was 2 to 50 nM.
Under `CCOc1nc(N2CCNCC2)nc2c1sc1nc(-c3ccc(NC(=O)OC)cc3)cc(C(F)(F)F)c12` [4-(4-Ethoxy-9-trifluoromethyl-2-piperazin-1-yl-pyrido[3′,2′:4,5]thieno[3,2-d]pyrimidin-7-yl)-phenyl-carbamic acid methyl ester] stands < 2 nM.
Take `CCOc1nc(N2CCNCC2)nc2c1sc1nc(-c3ccc(N4CCCCC4)cc3)cc(C(F)(F)F)c12` [4-Ethoxy-2-(piperazin-1-yl)-7-(4-(piperidin-1-yl)phenyl)-9-trifluoromethyl-pyrido[3′,2′:4,5]thieno[3,2-d]pyrimidine]: the 50% inhibitory concentration (IC50) was < 2 nM.
The value for `CCOc1nc(N2CCNCC2)nc2c1sc1nc(-c3ccccn3)cc(C(F)(F)F)c12` [4-Ethoxy-2-piperazin-1-yl-7-(2-pyridyl)-9-trifluoromethyl-pyrido[3′,2′:4,5]thieno[3,2-d]pyrimidine] was 2 to 50 nM; that for `CCOc1nc(N2CCNCC2)nc2c1sc1nc(-c3cc(OC)c(OC)c(OC)c3)cc(C(F)(F)F)c12` [4-Ethoxy-2-piperazin-1-yl-9-trifluoromethyl-7-(3,4,5-trimethoxy-phenyl)-pyrido[3′,2′:4,5]thieno[3,2-d]pyrimidine] was 2 to 50 nM.
Compound `CCOc1nc(N2CCNCC2)nc2c1sc1nc(C(C)C)cc(C(C)C)c12` [4-Ethoxy-7,9-di-iso-propyl-2-(piperazin-1-yl)-pyrido[3′,2′:4,5]thieno[3,2-d]pyrimidine] displayed a 50% inhibitory concentration (IC50) of 2 to 50 nM.
In the case of `CCOc1nc(N2CCNCC2)nc2c1sc1nc(-c3ccc(OC)c(OC)c3)cc(C)c12` [4-Ethoxy-7-(3,4-dimethoxy-phenyl)-9-methyl-2-(piperazin-1-yl)-pyrido[3′,2′:4,5]thieno-[3,2-d]pyrimidine], the IC50 lay within 2 to 50 nM.
The value for `CCOc1nc(N2CCNCC2)nc2c1sc1nc(-c3ccc4c(c3)OCO4)cc(C(F)(F)F)c12` [4-Ethoxy-7-(3,4-methylenedioxyphenyl)-2-piperazin-1-yl-9-trifluoromethyl-pyrido[3′,2′:4,5]thieno-[3,2-d]pyrimidine] was < 2 nM.
Consider `CCOc1nc(N2CCNCC2)nc2c1sc1nc(-c3cccc([N+](=O)[O-])c3)cc(C(F)(F)F)c12` [4-Ethoxy-7-(3-nitro-phenyl)-2-piperazin-1-yl-9-trifluoromethyl-pyrido[3′,2′:4,5]thieno[3,2-d]pyrimidine], for which the IC50 was < 2 nM.
Regarding `CCOc1nc(N2CCNCC2)nc2c1sc1nc(-c3ccc(-n4cccn4)cc3)cc(C(F)(F)F)c12` [4-Ethoxy-7-(4-(1H-pyrazol-1-yl)-phenyl)-2-piperazin-1-yl-9-trifluoromethyl-pyrido[3′,2′:4,5]thieno[3,2-d]pyrimidine], the IC50 is < 2 nM.
The value for `CCOc1nc(N2CCNCC2)nc2c1sc1nc(-c3ccc(-n4cccn4)cc3)cc(CC)c12` [4-Ethoxy-7-(4-(1H-pyrazol-1-yl)-phenyl)-9-ethyl-2-piperazin-1-yl-pyrido[3′,2′:4,5]thieno[3,2-d]pyrimidine] was < 2 nM.

The values above are taken from US8058285B2, “Substituted pyrido [3′, 2′: 4, 5] thieno [3, 2-D] pyrimidines and pyrido [3′, 2′: 4, 5] furo [3, 2-D] pyrimidines used as inhibitors of the PDE-4 and/or the release of TNF-ALPHA” (The Medicines Company (Leipzig) GmbH, priority 2004, dated 2011).
